We go through 31 compounds from patent US12600714B2, “Substituted pyrazinecarboxamide compounds for treating diseases related to EGFR mutation” (WIGEN BIOMEDICINE TECHNOLOGY (SHANGHAI) CO., LTD., priority 2020, dated 2026).

Structures are written as SMILES.

This assay relates to EGFR (del19/T790M/C797S). Kind of assay: HTRF inhibitory activity assay against EGFR (del19/T790M/C797S) enzyme. The assay is classed as biochemical. How it is done: Inhibitory Activity Assay of the Compounds Disclosed Herein Against EGFR (del19/T790M/C797S), EGFR (L858R/T790M/C797S) or EGFR (WT) Enzymes
The inhibitory effects of the compounds against EGFR (del19/T790M/C797S), EGFR (L858R/T790M/C797S) or EGFR (WT) enzyme activity was determined by using HTRF. The procedures are as follows:
The WT or mutant EGFR proteins were incubated with a serially diluted compounds at 28° C. for 10 min followed by addition of biotin-labeled general tyrosine kinase (TK) substrate and ATP. The mixture was incubated at room temperature for 40 min for reaction. After the termination of the reaction, an Eu3+-Cryptate-labeled antibody against TK and streptavidin-XL665 were added and the mixture was incubated at room temperature for 60 min. The luminescences at 615 nm and 665 nm were detected and the ratio of 665/615 was calculated to quantify the level of TK substrate phosphorylation. Inhibition % and IC50 of the compounds were calculated relative to the control group.
A general note: In TR-FRET formats the signal depends on donor and acceptor labels being close together.
Turning to `CN1CCN(C2CCN(c3ccc(Nc4nc(NC5CCOCC5)c(-c5ccoc5)nc4C(N)=O)cc3)CC2)CC1` [compound 91], the “EGFR (del19/T790M/C797S) inhibition (%) (0.3 nM compound)” value (shortened to “EGFR (del19/T790M/C797S) inhibition (%)”) is “++ (++ indicates an inhibition from 20% to 50%)”.
Turning to `CC(=O)Nc1cccc(-c2nc(C(N)=O)c(Nc3ccc(N4CCC(N5CCN(C)CC5)CC4)cc3)nc2NC2CCOCC2)c1` [compound 100], the “EGFR (del19/T790M/C797S) inhibition (%)” value is on record as “+ (+ indicates an inhibition less than or equal to 20%)”.
The entry for `CN1CCN(C2CCN(c3ccc(Nc4nc(NC5CCCC5O)c(-c5cc[nH]n5)nc4C(N)=O)cc3F)CC2)CC1` (stereo not shown) [compound 624] is “++ (++ indicates an inhibition from 20% to 50%)”; for `CN1CCN(C2CCN(c3ccc(Nc4nc(NC5CCC5)c(-c5ccccc5)nc4C(N)=O)cc3)CC2)CC1` [compound 30] it is “++ (++ indicates an inhibition from 20% to 50%)”.
The entry for `CN1CCN(C2CCN(c3ccc(Nc4nc(NC5CC5)c(-c5cc[nH]n5)nc4C(N)=O)cc3)CC2)CC1` [compound 625] is “+++ (+++ indicates an inhibition greater than 50%.)”; for `CN1CCN(C2CCN(c3ccc(Nc4nc(NC5CCOCC5)c(-c5ccccc5F)nc4C(N)=O)cc3)CC2)CC1` [compound 62] it is “+ (+ indicates an inhibition less than or equal to 20%)”.
The entry for `CN1CCN(C2CCN(c3ccc(Nc4nc(NC5CCCC5)c(-c5ccncc5)nc4C(N)=O)cc3)CC2)CC1` [compound 640] is “+++ (+++ indicates an inhibition greater than 50%.)”.
As for `CN1CCN(C2CCN(c3ccc(Nc4nc(NC5CC6(COC6)C5)c(-c5ccncc5)nc4C(N)=O)cc3)CC2)CC1` [compound 633], the “EGFR (del19/T790M/C797S) inhibition (%)” value was “+++ (+++ indicates an inhibition greater than 50%.)”.
The entry for `CN1CCN(C2CCN(c3ccc(Nc4nc(NC5CCC5)c(-c5ccncc5)nc4C(N)=O)cc3F)CC2)CC1` [compound 639] is “+++ (+++ indicates an inhibition greater than 50%.)”; for `CN1CCN(C2CCN(c3ccc(Nc4nc(NC5CCOCC5)c(-c5ccc(C(F)F)cc5)nc4C(N)=O)cc3)CC2)CC1` [compound 101] it is “+ (+ indicates an inhibition less than or equal to 20%)”.
For `CN1CCN(C2CCN(c3ccc(Nc4nc(N[C@H]5CCOC5)c(-c5ccncc5)nc4C(N)=O)cc3F)CC2)CC1` [compound 645], the “EGFR (del19/T790M/C797S) inhibition (%)” value was “+++ (+++ indicates an inhibition greater than 50%.)”.
The entry for `CN1CCC(Nc2nc(Nc3ccc(N4CCC(N5CCN(C)CC5)CC4)cc3)c(C(N)=O)nc2-c2ccccc2)CC1` [compound 7] is “+ (+ indicates an inhibition less than or equal to 20%)”; for `CN1CCN(C2CCN(c3ccc(Nc4nc(O[C@H]5CCOC5)c(-c5ccccc5)nc4C(N)=O)cc3)CC2)CC1` [compound 18] it is “+ (+ indicates an inhibition less than or equal to 20%)”.
On to `CN1CCN(C2CCN(c3ccc(Nc4nc(OC5CCOCC5)c(-c5ccccc5)nc4C(N)=O)cc3)CC2)CC1` [compound 12], for which the “EGFR (del19/T790M/C797S) inhibition (%)” value is recorded as “+ (+ indicates an inhibition less than or equal to 20%)”.
Turning to `Cc1cc(Nc2nc(NC3CC4(CCOCC4)C3)c(-c3ccncc3)nc2C(N)=O)ccc1N1CCC(N2CCN(C)CC2)CC1` [compound 379], the “EGFR (del19/T790M/C797S) inhibition (%)” value is recorded as “++ (++ indicates an inhibition from 20% to 50%)”.
Turning to `CN1CCN(C2CCN(c3ccc(Nc4nc(N[C@@H]5CCOC5)c(-c5ccncc5)nc4C(N)=O)cc3)CC2)CC1` [compound 642], the “EGFR (del19/T790M/C797S) inhibition (%)” value is on record as “+++ (+++ indicates an inhibition greater than 50%.)”.
The entry for `CN1CCN(C2CCN(c3ccc(Nc4nc(N[C@H]5CC[C@@H](O)CC5)c(-c5ccccc5)nc4C(N)=O)cc3)CC2)CC1` [compound 24] is “++ (++ indicates an inhibition from 20% to 50%)”; for `CN1CCN(C2CCN(c3ccc(Nc4nc(NC5CCOCC5)c(-c5cccc(NS(C)(=O)=O)c5)nc4C(N)=O)cc3)CC2)CC1` [compound 90] it is “+ (+ indicates an inhibition less than or equal to 20%)”.
Consider `Cc1cc(-c2nc(C(N)=O)c(Nc3ccc(N4CCC(N5CCN(C)CC5)CC4)c(C)c3)nc2NC2CCOCC2)ccn1` [compound 154], for which the “EGFR (del19/T790M/C797S) inhibition (%)” value was “++ (++ indicates an inhibition from 20% to 50%)”.
The entry for `CN1CCN(C2CCN(c3ccc(Nc4nc(NC5CC6(COC6)C5)c(-c5ccnc6[nH]ccc56)nc4C(N)=O)cc3F)CC2)CC1` [compound 630] is “+++ (+++ indicates an inhibition greater than 50%.)”; for `CN1CCN(C2CCN(c3ccc(Nc4nc(NC5CCC(O)C5)c(-c5cc[nH]n5)nc4C(N)=O)cc3)CC2)CC1` (stereo not shown) [compound 617] it is “++ (++ indicates an inhibition from 20% to 50%)”.
For the compound `CN1CCN(C2CCN(c3ccc(Nc4nc(NC5CCCC5)c(-c5ccccc5)nc4C(N)=O)cc3)CC2)CC1` [compound 9], the “EGFR (del19/T790M/C797S) inhibition (%)” value was “+ (+ indicates an inhibition less than or equal to 20%)”.
`CN1CCN(C2CCN(c3ccc(Nc4nc(NCCC(C)(C)O)c(-c5ccccc5)nc4C(N)=O)cc3)CC2)CC1` [compound 22]: the “EGFR (del19/T790M/C797S) inhibition (%)” value is recorded as “+ (+ indicates an inhibition less than or equal to 20%)”.
Take `COc1ccccc1-c1nc(C(N)=O)c(Nc2ccc(N3CCC(N4CCN(C)CC4)CC3)cc2)nc1NC1CCOCC1` [compound 42]: the “EGFR (del19/T790M/C797S) inhibition (%)” value was “+ (+ indicates an inhibition less than or equal to 20%)”.
As for `CN1CCN(C2CCN(c3ccc(Nc4nc(NCC(C)(C)O)c(-c5cccc6[nH]ccc56)nc4C(N)=O)cc3F)CC2)CC1` [compound 537], the entry is “+++ (+++ indicates an inhibition greater than 50%.)”; as for `CN1CCN(C2CCN(c3ccc(Nc4nc(N[C@H]5CC[C@H](O)C5)c(-c5ccccc5)nc4C(N)=O)cc3)CC2)CC1` [compound 138, 5-(((1S,3S)-3-hydroxycyclopentyl)amino)-3-((4-(4-(4-methylpiperazin-1-yl)piperidin-1-yl)phenyl)amino)-6-phenylpyrazine-2-carboxamide], “++ (++ indicates an inhibition from 20% to 50%)”.
In the case of `CN1CCN(C2CCN(c3ccc(Nc4nc(NC5CCOCC5)c(-c5cnn(C)c5)nc4C(N)=O)cc3)CC2)CC1` [compound 40], the “EGFR (del19/T790M/C797S) inhibition (%)” value was “+ (+ indicates an inhibition less than or equal to 20%)”.
Consider `CN1CCN(C2CCN(c3ccc(Nc4nc(NC5CCOCC5)c(-c5ccccc5O)nc4C(N)=O)cc3)CC2)CC1` [compound 99], for which the “EGFR (del19/T790M/C797S) inhibition (%)” value is “+ (+ indicates an inhibition less than or equal to 20%)”.
As for `NC(=O)c1nc(-c2ccccn2)c(NC2CCOC3(CC3)C2)nc1Nc1ccc(N2CCC(N3CCN(C4CC4)CC3)CC2)cc1` (stereo not shown) [compound 264], the entry is “++ (++ indicates an inhibition from 20% to 50%)”.
In the case of `CN1CCN(C2CCN(c3ccc(Nc4nc(NC5CCOCC5)c(-c5ccccc5CO)nc4C(N)=O)cc3)CC2)CC1` [compound 71], the “EGFR (del19/T790M/C797S) inhibition (%)” value is “+ (+ indicates an inhibition less than or equal to 20%)”.
Consider `CN1CCN(c2ccc(Nc3nc(NC4CCOCC4)c(-c4ccccc4C(N)=O)nc3C(N)=O)cc2)CC1` [compound 36], for which the “EGFR (del19/T790M/C797S) inhibition (%)” value is “+ (+ indicates an inhibition less than or equal to 20%)”.
